Test results taken from patent publication US20250057951A1, “DISCERNIBLE CELL SURFACE PROTEIN VARIANTS OF CD117 FOR USE IN CELL THERAPY” (UNIVERSITÄT BASEL, priority 2021, published 2025).
Changes are numbered by the printed parent chain. Names and notes keep the numbering of the source. “Also recorded” adds a separate entry of the source.

How the values were obtained:
CD117 = assay: Gene editing of CD117 in TF-1 cells, loss of SR-1 binding by FACS; format: cell-based, human; conditions: FACS 7 days after electroporation with Cas9, crRNA/tracrRNA or sgRNA and HDR template
Procedure: Gene editing of CD117 was performed in TF-1 cells using HDR. 12 different crRNAs were tested, six of them targeting amino acid residue E73 (Table 3), and six of them targeting amino acid residues 120-123 (Table 3).
Binding of antibody SR-1 to TF-1 cells was measured by FACS 7 days after electroporation with Cas9 protein, crRNA/tracrRNA or sgRNA and HDR template (Table 4).

antibody Refmab #1 [1] = assay: Octet titration, steady state KD of CD117 D1-2-3 variants to Refmab #1; format: binding; conditions: 7 concentrations 2000-5 nM; steady state; two individual experiments
Procedure: To further characterize binding of Refmab #1 to CD117 D1-2-3 variants E73K, E73L, E73R, E73Y, D121H, D121K, S123K and S123F, the analytes were titrated at 7 different concentrations (from 2000 nM to 5 nM). Antibody Refmab #1 was captured by AHC biosensors for 300 s at 0.5 to 1 μg/mL. Association and dissociation to Refmab #1 was extended to 600 s and 1000 s, respectively. Steady state analysis was performed.

TF-1 cells = assay: SCF-dependent proliferation, SCF titration on TF-1 cells with CD117 variants (CellTiter-Glo); format: cell-based, human
Procedure: In another experiment, SCF-dependent proliferation of variants E73K, E73Y, D121K, S123F and S123K was compared against wildtype CD117. TF-1 cells were seeded at a cell concentration of 150 000 cells/ml in sterile, white cell culture treated plates with transparent bottom in RPMI+GlutaMax+10% FCS. Cells were treated with a titration of SCF. After 3 days of incubation a CellTiter-Glo 2.0 assay (Promega) was performed, luminescence was read in a luminometer (Envision plate reader) and EC50's was determined. Two different experiments with triplicates in each experiment were performed.

Refmab #1 = Refmab #1 titration on engineered TF-1 cells (flow cytometry); format: binding; conditions: 5-0.00015 μg/mL antibody; 4° C.
Procedure: Binding of Refmab #1 was assessed in a flow cytometry assay. TF-1 cells were seeded at a cell concentration of 1,000,000 cells/ml in FACS Buffer (PBS+2% FCS+1 mM EDTA). After a Fc blocking using 1:20 diluted TruStain (BioLegend, #422302) in FACS buffer for 15 minutes at 4° C., cells were washed twice with FACS buffer. Subsequently, a SR-1 titration was added to the cells using 5-0.00015 μg/mL antibody for 30 minutes at 4° C. on a plate shaker. Cells were washed twice with FACS buffer and a secondary labelled antibody (IgG (H+L) Cross-Adsorbed Goat anti-Human, Alexa Fluor® 488, Invitrogen, A11013) was added to the cells for 30 minutes at 4° C. on a plate shaker. Cells were washed twice with FACS buffer, before adding 1:100 diluted solution of 7AAD staining (cell viability) in FACS buffer for a couple of minutes and analyzing the cells using the Novocyte Quanteon (Agilent).

Refmab #3 = assay: Octet: binding of CD117 variants to Refmab #3; conditions: qualitative Octet analysis
Procedure: (§1) A more sophisticated analysis of binding to the elected variants was performed with antibody Refmab #1. Binding of Refmab #1 to wt and variants (analyte) was measured in an Octet system RED96e or R8 at 25° C. with shaking at 1,000 rpm using 1× kinetic buffer (Sartorius, PN: 18-1105). First, the elected variants were screened for their ability to bind Refmab #1 using three different concentrations of analytes. Antibody Refmab #1 was captured by Anti-Human Fc capture biosensor (AHC) (Sartorius, PN: 18-5060) for 300 s at 0.5 to 1 μg/mL. As an analyte, human CD117 wt and variants, containing only domains 1, 2 and 3 (CD117 D1-2-3), was titrated at 500 nM, 50 nM and 5 nM. Association and dissociation of the analyte to Refmab #1 was monitored for 300 s and 900 s, respectively. Reference subtraction was performed against buffer only wells. AHC tips were regenerated using 10 mM Gly-HCl pH 1.7. Data were analyzed using the Octet Data Analysis software HT 12.0. Data were fitted (when possible) to a 1:1 binding model. Kinetic rates ka and […] globally fitted. Binding level of the elected variants were compared to wild type and are shown as percent in FIG. 7. For this qualitative analysis, the binding level of the top analyte concentration at end of the association step was used.
A similar experiment to that in Example 7 was performed, but utilizing Refmab's #2 and #3.

Biotinylated Avitag-hSCF = target: T1, Biotinylated Avitag-hSCF (human, UniProt P21583 26-190, limits assumed, biotinylated Avitag); assay: BLI (Octet), steady state: biotinylated SCF on streptavidin biosensor, CD117 D1-2-3 variant as analyte; KD relative to WT
T1 construct: Bought reagent; also called hSCF (Acros Biosystems SCF-H82E1)
Procedure: Association was monitored for 300 s and dissociation for 600 s. […] Reference subtraction was performed against buffer only wells. Biosensors were not regenerated and a new set of SA biosensors was used for each analyte. Data were analyzed using the Octet Data Analysis software HT 12.0. Steady state data analysis was performed due to the fast on/off nature of the interaction.

antibody Refmab #1 [2] = assay: Octet screen: binding of CD117 D1-2-3 variants to captured Refmab #1; conditions: nm shift at end of association, top analyte concentration (500 nM)
Procedure: as §1

SCF = target: T2, SCF (Homo sapiens, UniProt P21583); assay: Octet: binding of CD117 D1-2-3 variants to SCF; conditions: CD117 D1-2-3 constructs; for KD increase of SCF binding compared to wild type CD117: steady state
T2 construct: purchased Acros Biosystems SCF-H82E1
Procedure: SCF binding is one function of CD117. SCF binding is important for the transmission of functional signals by CD117. Binding of the elected variants to SCF was measured on an Octet system RED96e or R8 at 25° C. with shaking at 1000 rpm using 1× Kinetic Buffer (Sartorius, PN: 18-1105). […] Domain 1, 2, 3 comprise the binding site for SCF. Domains 4 and 5 were used as a negative, non-binding control.
CD117 D1-2-3 wt and variants thereof are titrated with different concentrations from 1000 to 5 nM. Association was monitored for 300 s and dissociation for 600 s. Binding to human CD117 domain 4 and 5 (CD117 D4-5) was performed under the same conditions as non-binding control. Reference subtraction was performed against buffer only wells. Biosensors were not regenerated and a new set of SA biosensors was used for each analyte. Data were analyzed using the Octet Data Analysis software HT 12.0. Steady state data analysis was performed due to the fast on/off nature of the interaction.

[3] = titration of SCF, 3 days, TF-1 cells with the CD117 variant

T2 sequence (P21583 26-273): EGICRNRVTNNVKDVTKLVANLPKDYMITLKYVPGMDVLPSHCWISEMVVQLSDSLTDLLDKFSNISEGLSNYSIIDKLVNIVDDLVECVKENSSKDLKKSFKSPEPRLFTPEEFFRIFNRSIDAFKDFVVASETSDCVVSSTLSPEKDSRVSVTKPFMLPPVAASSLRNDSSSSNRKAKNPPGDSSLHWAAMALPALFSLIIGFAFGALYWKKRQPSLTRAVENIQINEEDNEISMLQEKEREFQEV
Chain of Refmab #3 (as listed by the source): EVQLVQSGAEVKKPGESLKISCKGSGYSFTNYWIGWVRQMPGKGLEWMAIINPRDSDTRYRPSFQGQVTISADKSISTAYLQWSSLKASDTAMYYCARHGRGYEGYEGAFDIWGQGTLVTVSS
Chain of Refmab #3 (as listed by the source): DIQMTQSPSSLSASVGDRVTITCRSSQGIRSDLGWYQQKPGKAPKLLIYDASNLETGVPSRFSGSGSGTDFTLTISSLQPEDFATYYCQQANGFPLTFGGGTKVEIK
Chain of antibody Refmab #1 (as listed by the source): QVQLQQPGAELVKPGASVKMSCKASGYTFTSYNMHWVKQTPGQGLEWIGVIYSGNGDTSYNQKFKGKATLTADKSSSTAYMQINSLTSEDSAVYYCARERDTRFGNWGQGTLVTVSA
Chain of antibody Refmab #1 (as listed by the source): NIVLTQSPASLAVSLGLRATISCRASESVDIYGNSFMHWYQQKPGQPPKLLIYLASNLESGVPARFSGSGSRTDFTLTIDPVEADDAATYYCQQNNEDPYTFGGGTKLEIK
T1 sequence (P21583 26-190 limits assumed): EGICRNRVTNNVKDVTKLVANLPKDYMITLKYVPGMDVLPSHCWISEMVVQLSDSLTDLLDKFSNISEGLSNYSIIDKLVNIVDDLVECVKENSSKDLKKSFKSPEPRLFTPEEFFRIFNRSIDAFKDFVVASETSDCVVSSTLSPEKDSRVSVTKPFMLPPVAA

KIT_120_123_1: crRNA GTTGTCTTCTTTCCCATACA, SEQ ID NO: 9, targets residues 120-123 of CD117 (chemistry not given here)
KnockOut Efficiency (loss of binding of SR-1 compared to wild type cells) (CD117): 64.1%

KIT_120_123_3: crRNA TTGTTGACCGCTCCTTGTAT, SEQ ID NO: 11, targets residues 120-123 of CD117 (chemistry not given here)
KnockOut Efficiency (loss of binding of SR-1 compared to wild type cells) (CD117): 71.2%

KIT_E73_3: crRNA CAAATGGACTTTTGAGATCC, SEQ ID NO: 5, targets E73 of CD117 (chemistry not given here)
KnockOut Efficiency (loss of binding of SR-1 compared to wild type cells) (CD117): 37.2%

KIT_120_123_2: crRNA CTTCTTTCCCATACAAGGAG, SEQ ID NO: 10, targets residues 120-123 of CD117 (chemistry not given here)
KnockOut Efficiency (loss of binding of SR-1 compared to wild type cells) (CD117): 63.1%

KIT_120_123_6: crRNA GCGGTCAACAAGGAAAAGCT, SEQ ID NO: 14, targets residues 120-123 of CD117 (chemistry not given here)
KnockOut Efficiency (loss of binding of SR-1 compared to wild type cells) (CD117): 60.6%

wild type CD117: wild type human CD117 (SEQ ID No. 1); recombinant D1-2-3 construct or expressed in TF-1 cells [reference compound]
Kd (antibody Refmab #1 [1]): 1 nM | EC50 Average (TF-1 cells; average of two experiments): 4.18 ± 0.04 ng/mL | EC50 Experiment #1 (TF-1 cells; [3]): 4.14 ng/mL | EC50 Experiment #2 (TF-1 cells; [3]): 4.22 ng/mL | Binding of Refmab #1 to TF-1 cells expressing the CD117 variant (Refmab #1): bound

KIT_120_123_5: crRNA CATACAAGGAGCGGTCAACA, SEQ ID NO: 13, targets residues 120-123 of CD117 (chemistry not given here)
KnockOut Efficiency (loss of binding of SR-1 compared to wild type cells) (CD117): 53.8%

KIT_E73_1: crRNA CTGATCCGGGCTTTGTCAAA, SEQ ID NO: 3, targets E73 of CD117 (chemistry not given here)
KnockOut Efficiency (loss of binding of SR-1 compared to wild type cells) (CD117): 10.8%

KIT_E73_5: crRNA ATGAGAATAAGCAGAATGAA, SEQ ID NO: 7, targets E73 of CD117 (chemistry not given here)
KnockOut Efficiency (loss of binding of SR-1 compared to wild type cells) (CD117): 68.5%

B1: Y259G (receptor)
extracellular domains 1, 2 and 3: QPSVSPGEPSPPSIHPGKSDLIVRVGDEIRLLCTDPGFVKWTFEILDETNENKQNEWITEKAEATNTGKYTCTNKHGLSNSIYVFVRDPAKLFLVDRSLYGKEDNDTLVRCPLTDPEVTNYSLKGCQGKPLPKDLRFIPDPKAGIMIKSVKRAYHRLCLHCSVDQEGKSVLSEKFILKVRPAFKAVPVVSVSKASYLLREGEEFTVTCTIKDVSSSVYSTWKRENSQTKLQEKGNSWHHGDFNYERQATLTISSARVNDSGVFMCYANNTFGSANVTTTLEVVD
notes: not in the list MOLECULES; also called human CD117 D1-2-3 variant Y259G
binding to Refmab #3 compared to wild type CD117 (Refmab #3): strong decrease in binding | binding result (Biotinylated Avitag-hSCF): binds

B2: S123V: variant of human CD117 with substitution S123V (protein)
chain: QPSVSPGEPSPPSIHPGKSDLIVRVGDEIRLLCTDPGFVKWTFEILDETNENKQNEWITEKAEATNTGKYTCTNKHGLSNSIYVFVRDPAKLFLVDRVLYGKEDNDTLVRCPLTDPEVTNYSLKGCQGKPLPKDLRFIPDPKAGIMIKSVKRAYHRLCLHCSVDQEGKSVLSEKFILKVRPAFKAVPVVSVSKASYLLREGEEFTVTCTIKDVSSSVYSTWKRENSQTKLQEKYNSWHHGDFNYERQATLTISSARVNDSGVFMCYANNTFGSANVTTTLEVVDKG
binding to Refmab #1 compared to wild type (antibody Refmab #1 [2]): strong decrease in binding | binding to SCF (SCF): binding to SCF, albeit to a slightly lower degree | KD increase of SCF binding compared to wild type CD117 (SCF): less than three-fold; also recorded: less than four-fold

B3: Y259P: variant of human CD117 with substitution Y259P (protein)
chain: B2 chain with V98S, Y234P
KD increase of SCF binding compared to wild type CD117 (SCF): less than three-fold; also recorded: less than four-fold | binding to Refmab #3 compared to wild type CD117 (Refmab #3): strong decrease in binding

B4: K127L: variant of human CD117 with substitution K127L (protein)
chain: B2 chain with V98S, K102L
binding to SCF (SCF): binding to SCF, albeit to a slightly lower degree

B5: Y259E: variant of human CD117 with substitution Y259E (protein)
chain: B2 chain with V98S, Y234E
binding to SCF (SCF): binding to SCF, albeit to a slightly lower degree | KD increase of SCF binding compared to wild type CD117 (SCF): less than three-fold; also recorded: less than four-fold

B6: Y259A: variant of human CD117 with substitution Y259A (protein)
chain: B2 chain with V98S, Y234A
binding to Refmab #3 compared to wild type CD117 (Refmab #3): strong decrease in binding

B7: S261Q: variant of human CD117 with substitution S261Q (protein)
chain: B2 chain with V98S, S236Q
binding to Refmab #3 compared to wild type CD117 (Refmab #3): complete loss of binding

B8: S261E: variant of human CD117 with substitution S261E (protein)
chain: B2 chain with V98S, S236E
binding to Refmab #3 compared to wild type CD117 (Refmab #3): complete loss of binding
